Results published in ChEMBL document CHEMBL1201862, “PubChem BioAssay data set” (2004).
Active and inactive are the calls of the source. Cut-off read from the data, not from the text of the source, for most assays here: actives have a measured IC50 and inactives only a lower limit.

What was measured:
Caspase-3 [1] = molecular target: T1, Caspase-3 (Homo sapiens, UniProt P42574); type: functional
T1 sequence (P42574 whole entry): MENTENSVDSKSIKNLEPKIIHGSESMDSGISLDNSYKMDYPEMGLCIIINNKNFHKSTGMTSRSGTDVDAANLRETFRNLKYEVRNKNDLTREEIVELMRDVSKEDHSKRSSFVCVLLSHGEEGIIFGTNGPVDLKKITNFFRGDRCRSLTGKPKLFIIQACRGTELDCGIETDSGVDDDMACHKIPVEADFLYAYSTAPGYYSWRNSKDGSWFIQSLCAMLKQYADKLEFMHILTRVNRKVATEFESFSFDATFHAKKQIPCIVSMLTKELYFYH

[2] = molecular target: T2, Sentrin-specific protease 7 (Homo sapiens, UniProt Q9BQF6); type: functional;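 note: Luminescence-based dose-response confirmation of ultra-high-throughput screening hits, measuring inhibition of SENP7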
T2 sequence (Q9BQF6 whole entry): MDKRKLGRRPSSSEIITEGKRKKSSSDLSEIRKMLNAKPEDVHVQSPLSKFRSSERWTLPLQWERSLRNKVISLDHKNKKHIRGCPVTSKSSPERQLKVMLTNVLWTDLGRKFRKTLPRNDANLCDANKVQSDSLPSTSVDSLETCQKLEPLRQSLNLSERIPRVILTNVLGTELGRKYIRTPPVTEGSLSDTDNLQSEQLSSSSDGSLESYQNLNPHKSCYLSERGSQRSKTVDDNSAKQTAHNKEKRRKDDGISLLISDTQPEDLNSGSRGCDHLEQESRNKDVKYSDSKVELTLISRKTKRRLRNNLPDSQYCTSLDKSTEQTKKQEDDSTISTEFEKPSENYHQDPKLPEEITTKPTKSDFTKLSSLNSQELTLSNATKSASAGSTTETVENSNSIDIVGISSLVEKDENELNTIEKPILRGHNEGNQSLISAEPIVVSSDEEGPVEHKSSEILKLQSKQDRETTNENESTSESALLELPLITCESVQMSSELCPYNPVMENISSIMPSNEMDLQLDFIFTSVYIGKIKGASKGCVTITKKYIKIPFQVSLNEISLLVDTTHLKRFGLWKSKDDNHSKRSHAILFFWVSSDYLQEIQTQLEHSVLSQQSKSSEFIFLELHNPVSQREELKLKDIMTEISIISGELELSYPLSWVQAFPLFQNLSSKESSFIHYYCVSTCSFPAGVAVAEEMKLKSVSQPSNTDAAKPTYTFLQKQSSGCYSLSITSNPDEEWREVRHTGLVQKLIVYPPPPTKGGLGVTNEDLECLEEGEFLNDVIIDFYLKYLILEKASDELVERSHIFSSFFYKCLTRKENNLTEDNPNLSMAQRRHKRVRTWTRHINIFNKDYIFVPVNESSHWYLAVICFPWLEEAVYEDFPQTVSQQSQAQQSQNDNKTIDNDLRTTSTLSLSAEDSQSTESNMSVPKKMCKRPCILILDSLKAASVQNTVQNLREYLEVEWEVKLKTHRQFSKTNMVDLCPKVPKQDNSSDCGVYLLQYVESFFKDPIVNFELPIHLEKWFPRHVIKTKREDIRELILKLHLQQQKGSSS

[3] = molecular target: T3, Sentrin-specific protease 6 (Homo sapiens, UniProt Q9GZR1); type: functional;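 note: Luminescence-based dose-response confirmatory assay of SENP6 inhibition, following up an ultra-high-throughput screen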
T3 sequence (Q9GZR1 whole entry): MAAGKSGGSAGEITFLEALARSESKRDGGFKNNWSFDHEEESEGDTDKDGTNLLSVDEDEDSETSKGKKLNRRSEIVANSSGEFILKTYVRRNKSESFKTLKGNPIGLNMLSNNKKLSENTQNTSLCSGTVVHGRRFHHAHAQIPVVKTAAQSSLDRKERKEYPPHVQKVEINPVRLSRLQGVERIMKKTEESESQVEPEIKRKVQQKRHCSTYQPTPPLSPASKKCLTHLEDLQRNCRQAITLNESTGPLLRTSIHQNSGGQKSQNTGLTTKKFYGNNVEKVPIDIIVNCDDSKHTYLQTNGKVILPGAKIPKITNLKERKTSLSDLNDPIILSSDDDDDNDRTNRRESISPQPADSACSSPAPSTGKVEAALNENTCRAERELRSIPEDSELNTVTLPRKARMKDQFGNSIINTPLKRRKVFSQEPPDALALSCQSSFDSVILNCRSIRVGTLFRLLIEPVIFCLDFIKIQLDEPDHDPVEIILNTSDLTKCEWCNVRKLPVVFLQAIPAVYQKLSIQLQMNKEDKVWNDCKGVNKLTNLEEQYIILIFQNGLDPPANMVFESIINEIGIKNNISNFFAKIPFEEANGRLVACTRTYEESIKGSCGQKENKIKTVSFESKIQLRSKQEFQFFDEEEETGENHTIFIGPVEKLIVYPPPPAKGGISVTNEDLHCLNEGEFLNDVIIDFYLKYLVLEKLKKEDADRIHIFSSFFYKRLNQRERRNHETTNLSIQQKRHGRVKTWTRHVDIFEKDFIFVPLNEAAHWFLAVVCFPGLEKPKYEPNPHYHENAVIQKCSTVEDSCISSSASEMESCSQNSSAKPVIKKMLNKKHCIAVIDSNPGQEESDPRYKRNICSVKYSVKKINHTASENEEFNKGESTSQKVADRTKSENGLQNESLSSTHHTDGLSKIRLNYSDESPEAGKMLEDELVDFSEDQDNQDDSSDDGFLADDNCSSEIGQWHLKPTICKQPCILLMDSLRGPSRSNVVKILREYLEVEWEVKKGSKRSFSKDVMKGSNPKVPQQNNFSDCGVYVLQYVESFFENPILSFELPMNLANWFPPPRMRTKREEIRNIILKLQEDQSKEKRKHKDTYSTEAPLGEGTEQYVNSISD

[4] = molecular target: T4, Sentrin-specific protease 8 (Homo sapiens, UniProt Q96LD8); experiment: SENP8 protease inhibitors, SAR follow-up, biochemical, luminescence (AID 504501); type: functional
T4 sequence (Q96LD8 whole entry): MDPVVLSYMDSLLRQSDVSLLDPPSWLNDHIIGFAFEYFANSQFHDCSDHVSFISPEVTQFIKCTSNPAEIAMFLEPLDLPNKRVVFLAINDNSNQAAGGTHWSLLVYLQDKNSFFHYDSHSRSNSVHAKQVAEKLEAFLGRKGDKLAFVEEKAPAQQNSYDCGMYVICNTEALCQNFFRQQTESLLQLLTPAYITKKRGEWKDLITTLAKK

Caspase-3 [5] = molecular target: T1, Caspase-3; experiment: SAR Analysis of small molecule inhibitors of Sentrin-specific proteases (SENPs) using a Caspase-3 Selectivity assay. [Related pubchem assays (depositor defined):AID2540, AID2599, AID434973, AID489001]; type: functional
[6] = A cytotoxicity screen of small molecule inhibitors of the PhoP region in Salmonella typhi identified in the primary screen. [Related pubchem assays: 1850, 1864, 1985 ]; type: functional
SUMO-activating enzyme = SUMO-activating enzyme (Homo sapiens, UniProt Q9UBT2); experiment: inhibitors of in vitro SUMOylation cascade, primary screen, biochemical, HTRF, uHTS (AID 2006); type: protein-complex assay
Chain of SUMO-activating enzyme (Q9UBE0 whole entry): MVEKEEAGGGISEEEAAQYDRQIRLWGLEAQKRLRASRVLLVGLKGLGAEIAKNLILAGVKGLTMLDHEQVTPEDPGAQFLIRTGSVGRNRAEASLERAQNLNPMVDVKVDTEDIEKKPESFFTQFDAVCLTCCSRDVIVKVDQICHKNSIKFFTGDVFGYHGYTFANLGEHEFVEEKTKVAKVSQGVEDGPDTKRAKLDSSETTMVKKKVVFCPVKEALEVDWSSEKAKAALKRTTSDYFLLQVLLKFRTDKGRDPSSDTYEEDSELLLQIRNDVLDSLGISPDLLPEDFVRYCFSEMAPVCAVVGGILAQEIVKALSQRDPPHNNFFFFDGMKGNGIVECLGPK
Chain of SUMO-activating enzyme (Q9UBT2 whole entry): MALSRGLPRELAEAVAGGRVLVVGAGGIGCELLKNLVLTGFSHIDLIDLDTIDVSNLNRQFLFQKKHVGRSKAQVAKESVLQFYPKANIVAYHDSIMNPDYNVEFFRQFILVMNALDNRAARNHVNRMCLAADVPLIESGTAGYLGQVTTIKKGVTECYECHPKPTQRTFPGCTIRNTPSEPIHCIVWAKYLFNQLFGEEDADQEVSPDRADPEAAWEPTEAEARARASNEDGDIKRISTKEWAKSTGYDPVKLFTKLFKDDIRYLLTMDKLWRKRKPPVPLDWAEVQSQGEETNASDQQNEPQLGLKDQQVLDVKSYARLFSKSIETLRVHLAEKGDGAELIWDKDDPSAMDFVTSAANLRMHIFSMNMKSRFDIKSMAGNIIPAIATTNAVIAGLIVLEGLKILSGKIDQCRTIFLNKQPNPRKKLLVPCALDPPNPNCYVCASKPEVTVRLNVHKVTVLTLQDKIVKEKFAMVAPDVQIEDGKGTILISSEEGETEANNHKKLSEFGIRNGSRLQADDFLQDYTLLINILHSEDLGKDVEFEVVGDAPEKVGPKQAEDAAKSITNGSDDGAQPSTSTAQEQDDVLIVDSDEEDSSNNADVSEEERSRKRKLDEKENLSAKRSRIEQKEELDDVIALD

[7] = molecular target: Small ubiquitin-related modifier 1 (Homo sapiens, UniProt P63165); experiment: inhibitors of SUMO1 partner interactions, dose response, biochemical, FRET (AID 624383); type: functional; details: read-out: IC50_Mean
Chain of Small ubiquitin-related modifier 1 (P63165 whole entry): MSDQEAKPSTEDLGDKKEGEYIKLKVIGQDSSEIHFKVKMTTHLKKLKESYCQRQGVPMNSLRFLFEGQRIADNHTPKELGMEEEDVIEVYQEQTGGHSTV

COc1cc(C(=O)c2nccc3cc(OC)c(OC)cc23)c([N+](=O)[O-])cc1OC
IC50 (Caspase-3 [1]): 31.9 µM (active)
IC50 [2]: 2.93 µM (active)
IC50 [3]: 0.936 µM (active)
IC50 [4]: > 99 µM (inactive)
IC50 (Caspase-3 [5]): > 99 µM (inactive)

c1ccc2c(Nc3nnc(-c4ccncc4)s3)cccc2c1
EC50 [6]: > 50 µM (active)
IC50 (Caspase-3 [1]): 18.5 µM (active)
IC50 [2]: 5.51 µM (active)
IC50 [3]: 10.1 µM (active)

N#Cc1c(O)nc(SCC(=O)N2c3ccccc3Sc3ccccc32)nc1-c1ccccc1
IC50 (SUMO-activating enzyme): 14.3 µM (active)
IC50 [7]: 19.8 µM (active)
